Assay results from paper PMC9180926, “Discovery of Novel 3-Hydroxyquinazoline-2,4(1H,3H)-Dione Derivatives: A Series of Metal Ion Chelators with Potent Anti-HCV Activities” (International Journal of Molecular Sciences, 2022).
Like-named read-outs stand apart in the source and are kept apart here.

What was measured:
[1] = Cytotoxicity assay (CCK-8) on replicon cells; assay type: cell-based; conditions: human, HCV 1b replicon cells (Huh-7.5.1); 50% cytotoxic concentration; CCK-8, HCV 1b replicon cells, 72 h
Procedure: (§1) The HCV replicons were validated as convenient and effective models for testing the anti-HCV activity. Since HCV subtype 1b is one of the major subtypes worldwide, especially in China, the replicon model from the Huh-7.5.1 cell line integrating HCV 1b genome encoding the nonstructural proteins was chosen to evaluate the anti-HCV activities of 3-hydroxyquinazoline-2,4(1H,3H)-diones. The inhibitory rates of the compounds on HCV replicon cells were determined at concentrations of 25 μM and 10 μM, respectively. The broad-spectrum antiviral drug ribavirin (RBV) and the NS5B nucleoside inhibitor 2′-C-methyladenosine (2CMA) were selected as positive controls. The cytotoxicity of these compounds on replicon cells was determined using the cell counting kit-8 (CCK-8) assay.
The HCV 1b replicon cells were incubated and treated with test compounds or blank DMSO in a 48-well plate using the same materials and methods as described in the experimental procedure of anti-HCV assay. The final concentration of DMSO in each well was 0.1%. After 72 h of drug treatment, the culture medium in the well plate was removed, and cells in each well were washed with 300 μL of PBS. A total of 300 μL of pre-prepared fresh culture medium containing 30 μL CCK-8 reagent (Donjindo, Kumamoto, Japan) was added to each well, and the plate was incubated at 5% CO2/37 °C for 2 h. The OD (optical density) value of each well at 450 nm was measured using a multi-function microplate reader (SpectraMax M5, Molecular Devices, San Jose, CA, USA). The death ratio of each well was calculated using the following equation, in which ODcompound or ODblank represents the measured OD value of the compound group or the blank control (DMSO), respectively:death ratio = (1−ODcompound/ODblank) × 100%(2)
The cell death data under at least six different concentration gradients were imported into GraphPad Prism 7.0.0 software (GraphPad Software Inc., San Diego, CA, USA), and the CC50 (50% cytotoxic concentration) values were calculated using the nonlinear fitting method.

[2] = test system: HCV 1b replicon cells (Huh-7.5.1); assay: Anti-HCV assay, HCV 1b replicon cells with luciferase reporter; assay type: cell-based, hepatitis C virus (HCV) subtype 1b; conditions: for EC50: mean ± SD; for inhibition at 10 µM / inhibition at 25 µM: Huh-7.5.1, 72 h; for inhibition at 10 µM: read-out: HCV Inhibition 10 μM; for inhibition at 25 µM: read-out: HCV Inhibition 25 μM; for HCV inhibition at the tested concentrations: at the tested concentrations (25 μM and 10 μM)
Procedure: as §1
HCV 1b replicon cells (Huh-7.5.1) containing luciferase reporter gene were kindly provided by Prof. Zhenghong Yuan (Key Laboratory of Medical Molecular Virology, Fudan University, Shanghai, China). The replicon cells were plated at 1.5 × 10^4 cells per well in a 48-well plate (Corning Inc., New York, NY, USA) at 5% CO2/37 °C. The culture medium was Dulbecco’s Modified Eagle Medium (DMEM, pH 7.3, Shanghai XP Biomed Ltd., Shanghai, China) containing 10% fetal bovine serum (Shanghai XP Biomed Ltd., Shanghai, China), 10^5 U/L penicillin, 0.1 g/L streptomycin, and 0.5 μg/mL blasticidin. After 12 h, the culture medium in each well was replaced with 300 μL of pre-prepared fresh culture medium containing test compound (dissolved in DMSO with specific concentration) or blank DMSO. The final concentration of DMSO in the culture medium in the plate was 0.1%. Each group was tested at least twice in parallel. Ribavirin and 2CMA were used as the positive controls. After incubating the drug-added plate at 5% CO2/37 °C for 72 h, the medium was removed, and each well was washed with 300 μL of phosphate buffer solution (PBS, Shanghai XP Biomed Ltd., Shanghai, China). The cells in each well were then lysed with 50 μL of 1× lysis buffer (E2820, Promega, Madison, WI, USA). Subsequently, 50 μL of 1× luciferase assay substrate (E2820, Promega, Madison, WI, USA) was mixed with 20 μL of the harvested cell lysates.
The inhibitory rates under at least six different concentration gradients were imported into GraphPad Prism 7.0 software to calculate the anti-HCV EC50 values of the compounds using the nonlinear fitting method.

[3] = Hepatitis C virus, Huh-7.5.1, 50% effective concentration, HCV 1b replicon cells
[4] = Hepatitis C virus, inhibitory rate at 10 μM, HCV 1b replicon cells, 72 h
[5] = Hepatitis C virus, inhibitory rate at 25 μM, HCV 1b replicon cells, 72 h

SMILES | inhibition at 10 µM [2, 4] [%] | inhibition at 25 µM [2, 5] [%] | other results
O=C(Cn1c(=O)n(O)c(=O)c2ccccc21)Nc1ccc(C(F)(F)F)cc1 [10p, 2-(3-Hydroxy-2,4-dioxo-3,4-dihydroquinazolin-1(2H)-yl)-N-(4-(trifluoromethyl)phenyl)acetamide] | 41.4 | 64.9 | CC50 at 72 h [1]: 15.3 ± 0.7 µM; EC50 ([2]; 50% effective concentration, HCV 1b replicon cells): 8.1 ± 0.1 µM; EC50 [2, 3]: < 10 µM
O=C(Cn1c(=O)n(O)c(=O)c2ccccc21)NCc1ccc(F)cc1 [10m, N-(4-Fluorobenzyl)-2-(3-hydroxy-2,4-dioxo-3,4-dihydroquinazolin-1(2H)-yl)acetamide] | 12.7 | 58.4 | 
O=C(Cn1c(=O)n(O)c(=O)c2ccccc21)NCCc1ccccc1 [10f, 2-(3-Hydroxy-2,4-dioxo-3,4-dihydroquinazolin-1(2H)-yl)-N-phenethylacetamide] | 13.3 | ≤ 50 | 
O=C(Cn1c(=O)n(O)c(=O)c2ccc(-c3ccco3)cc21)Nc1ccccc1Cl [23j, N-(2-Chlorophenyl)-2-(7-(furan-2-yl)-3-hydroxy-2,4-dioxo-3,4-dihydroquinazolin-1(2H)-yl)acetamide] | 47.8 | 80 | CC50 at 72 h [1]: 12.2 ± 3.3 µM; EC50 [2, 3]: 5.2 ± 1.9 µM
CCCn1c(=O)n(O)c(=O)c2ccc(-c3ccccc3)cc21 [23g, 3-Hydroxy-7-phenyl-1-propylquinazoline-2,4(1H,3H)-dione] | -2.2 | 67.4 | 
O=c1[nH]c2cc(-c3ccc(F)cc3F)ccc2c(=O)n1O [21n, 7-(2,4-Difluorophenyl)-3-hydroxyquinazoline-2,4(1H,3H)-dione] | 69.7 |  | CC50 at 72 h [1]: 11.2 ± 1.4 µM; EC50 [2, 3]: 3.9 ± 0.3 µM
Cn1c(=O)n(O)c(=O)c2cc(-c3cccc([N+](=O)[O-])c3)ccc21 [23a, 3-Hydroxy-1-methyl-6-(3-nitrophenyl)quinazoline-2,4(1H,3H)-dione] | 66.5 |  | CC50 at 72 h [1]: 5.2 ± 0.1 µM; EC50 [2, 3]: 2.3 ± 0.1 µM
COc1ccc(-c2cccc3c(=O)n(O)c(=O)[nH]c23)cc1 [21w, 3-Hydroxy-8-(4-methoxyphenyl)quinazoline-2,4(1H,3H)-dione] | 11.5 | 36.4 | 
O=c1[nH]c2cc(-c3cc(F)c(F)c(F)c3)ccc2c(=O)n1O [21q, 3-Hydroxy-7-(3,4,5-trifluorophenyl)quinazoline-2,4(1H,3H)-dione] | 26.8 | 5.4 | 
O=c1[nH]c2cc(Cc3ccccc3)ccc2c(=O)n1O [18a, 7-Benzyl-3-hydroxyquinazoline-2,4(1H,3H)-dione] | 28.6 | 59.8 | 
O=C(Cn1c(=O)n(O)c(=O)c2ccccc21)Nc1ccccc1 [10j, 2-(3-Hydroxy-2,4-dioxo-3,4-dihydroquinazolin-1(2H)-yl)-N-phenylacetamide] | 30.1 | 62.7 | 
COc1ccc(-c2ccc3c(=O)n(O)c(=O)[nH]c3c2)cc1 [21i, 3-Hydroxy-7-(4-methoxyphenyl)quinazoline-2,4(1H,3H)-dione] | 64.7 |  | CC50 at 72 h [1]: 5.6 ± 0.5 µM; EC50 [2, 3]: 3.4 ± 0.1 µM
COc1ccc(NC(=O)Cn2c(=O)n(O)c(=O)c3ccccc32)cc1 [10o, 2-(3-Hydroxy-2,4-dioxo-3,4-dihydroquinazolin-1(2H)-yl)-N-(4-methoxyphenyl)acetamide] | 16.9 | 67.5 | 
CCn1c(=O)n(O)c(=O)c2ccc(-c3ccccc3)cc21 [23e, 1-Ethyl-3-hydroxy-7-phenylquinazoline-2,4(1H,3H)-dione] | 24.6 | 77.5 | CC50 at 72 h [1]: 39.5 ± 2.3 µM; EC50 [2, 3]: 26.8 ± 2.5 µM
CCCCNC(=O)Cn1c(=O)n(O)c(=O)c2ccccc21 [10i, N-Butyl-2-(3-hydroxy-2,4-dioxo-3,4-dihydroquinazolin-1(2H)-yl)acetamide] | 26.5 | 22.9 | HCV inhibition at the tested concentrations [2]: less than 30%
Cn1c(=O)n(O)c(=O)c2ccc(Cc3ccccc3)cc21 [18b, 7-Benzyl-3-hydroxy-1-methylquinazoline-2,4(1H,3H)-dione] | 23 |  | 
O=c1c2cc(-c3ccccc3)ccc2n(Cc2ccccc2)c(=O)n1O [23h, 1-Benzyl-3-hydroxy-6-phenylquinazoline-2,4(1H,3H)-dione] | 7.8 | 2 | 
O=C(Cn1c(=O)n(O)c(=O)c2ccccc21)NCc1ccccc1 [10h, N-Benzyl-2-(3-hydroxy-2,4-dioxo-3,4-dihydroquinazolin-1(2H)-yl)acetamide] | 1.3 | ≤ 50 | 
Cn1c(=O)n(O)c(=O)c2ccc(Cc3cc(F)cc(F)c3)cc21 [18c, 7-(3,5-Difluorobenzyl)-3-hydroxy-1-methylquinazoline-2,4(1H,3H)-dione] | 39.5 |  | 
O=C(Cn1c(=O)n(O)c(=O)c2ccccc21)NCc1c(Cl)cccc1Cl [10k, N-(2,6-Dichlorobenzyl)-2-(3-hydroxy-2,4-dioxo-3,4-dihydroquinazolin-1(2H)-yl)acetamide] | 43.7 | 54.7 | 
O=c1c2ccc(-c3ccccc3)cc2n(Cc2ccccc2)c(=O)n1O [23i, 1-Benzyl-3-hydroxy-7-phenylquinazoline-2,4(1H,3H)-dione] | -6.5 | 4.8 | 
O=C(Cn1c(=O)n(O)c(=O)c2ccccc21)NCC1CC1 [10g, N-(Cyclopropylmethyl)-2-(3-hydroxy-2,4-dioxo-3,4-dihydroquinazolin-1(2H)-yl)acetamide] | 10.6 | 15 | HCV inhibition at the tested concentrations [2]: less than 30%
O=C(Cn1c(=O)n(O)c(=O)c2ccccc21)NCc1cccc(F)c1 [10l, N-(3-Fluorobenzyl)-2-(3-hydroxy-2,4-dioxo-3,4-dihydroquinazolin-1(2H)-yl)acetamide] | 22.4 | 45.5 | 
O=c1[nH]c2c(-c3ccc(F)cc3)cccc2c(=O)n1O [21v, 8-(4-Fluorophenyl)-3-hydroxyquinazoline-2,4(1H,3H)-dione] | 23.5 | 44.5 | 
O=c1[nH]c2cc(-c3cc(F)cc(F)c3)ccc2c(=O)n1O [21m, 7-(3,5-Difluorophenyl)-3-hydroxyquinazoline-2,4(1H,3H)-dione] | 48.2 |  | 
O=c1[nH]c2ccccc2c(=O)n1O [10a, 3-Hydroxyquinazoline-2,4(1H,3H)-dione] |  |  | inhibition at 10 µM ([2]; Hepatitis C virus): -3%; inhibition at 25 µM ([2]; Hepatitis C virus): 36%
O=c1[nH]c2c(-c3ccc(C(F)(F)F)cc3)cccc2c(=O)n1O [21x, 3-Hydroxy-8-(4-(trifluoromethyl)phenyl)quinazoline-2,4(1H,3H)-dione] | 16.4 | 47.5 | 
O=c1c2ccccc2n(CCCc2ccccc2)c(=O)n1O [10b, 3-Hydroxy-1-(3-phenylpropyl)quinazoline-2,4(1H,3H)-dione] | 28.6 | 40.9 | 
CCCn1c(=O)n(O)c(=O)c2cc(-c3ccccc3)ccc21 [23f, 3-Hydroxy-6-phenyl-1-propylquinazoline-2,4(1H,3H)-dione] | 26.7 | 28 | 
